Conditions in all cases: Homo sapiens
Experiment [1] deals with HeLa. Briefly: Compound was tested for its inhibition of HIV-1 induced focus formation in MAGI-CCR5 cells in strains like NL4-3. It counts as functional, cell-based.
In experiment [2] the test system is HeLa. Briefly: Compound was tested for its inhibition of HIV-1 induced focus formation in MAGI-CCR5 cells in strains like IIIB-R(Y181C). The format is functional, cell-based.
The test system of experiment [3] is HeLa. Briefly: Compound was tested for its inhibition of HIV-1 induced focus formation in MAGI-CCR5 cells in strains like NL4-3K103N. The format is functional, cell-based.
The subject of experiment [4] is HeLa. In words: Compound was tested for its cytotoxicity depending on the viability of mock-infected cells. The format is functional.
In experiment [5] the test system is HeLa. In words: Compound was tested for its inhibition of HIV-1 induced focus formation in MAGI-CCR5 cells in strains like IIIB. It counts as functional, cell-based.

In the case of `CCOCn1c(SC2CCCCC2)c(C(C)C)c(=O)[nH]c1=O`, the EC50 (commonly the concentration that produces a half-maximal response) was 3 nM in the experiment on HeLa [1], 270 nM in the experiment with HeLa [2], 250 nM in the experiment on HeLa [3] and 3 nM with HeLa [5]. Moreover, in the experiment on HeLa [4], it took 74800 nM to reach half-maximal cytotoxicity (CC50).

Take `CCOCn1c(Cc2cc(C)cc(C)c2)c(C(C)C)c(=O)[nH]c1=O`: the EC50 stood at 1 nM in the experiment with HeLa [1], 180 nM in the experiment with HeLa [2], 40 nM in the experiment on HeLa [3] and 1 nM in the experiment on HeLa [5]. Further, the midpoint of cytotoxicity with HeLa [4], the CC50, lay at 52500 nM.

For the molecule `CCOCn1c(Cc2ccccc2)c(C(C)C)c(=O)[nH]c1=O` [EMIVIRINE], the 50% effective concentration (EC50) in the experiment with HeLa [1] was 1 nM; with HeLa [2] it was 13400 nM; in the experiment on HeLa [3], 1260 nM; with HeLa [5] it was 4 nM. Moreover, in the experiment on HeLa [4], the 50% cytotoxic concentration (CC50) (usually the concentration that lowers cell viability or growth by half) was over 100000 nM.

The record behind these values is ChEMBL document CHEMBL1132459, “Design of MKC-442 (emivirine) analogues with improved activity against drug-resistant HIV mutants” (J Med Chem, 1999).
